Assay results: patent US20230114241A1, “METHODS OF TREATING EPILEPSY USING THE SAME” (Trevena, Inc., priority 2019, published 2023)

How the values were obtained:
[1] = target: T1, human sphingosine-1-phosphate receptor 1 (S1P1) (Homo sapiens, UniProt P21453); experiment: Inhibition of cAMP production (HTRF cAMP HiRange), S1P1 CHO-K1 cells; type: cell-based; details: for Emax: CHO-K1, efficacy normalized to maximum efficacy of fingolimod, read-out: hS1P1 CAMP SPAN; for EC50: read-out: hS1P1 CAMP pEC50 (converted)
In short: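 CHO-K1 cells co-expressing human S1P1 (C-terminal ProLink tag) and EA-β-arrestin2, plated overnight; after 30 min compound incubation at 37 °C, intracellular cAMP measured by HTRF TR-FRET following 1 h at room temperature. Values normalized to fingolimod.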
Target sequence in this assay (P21453 whole entry): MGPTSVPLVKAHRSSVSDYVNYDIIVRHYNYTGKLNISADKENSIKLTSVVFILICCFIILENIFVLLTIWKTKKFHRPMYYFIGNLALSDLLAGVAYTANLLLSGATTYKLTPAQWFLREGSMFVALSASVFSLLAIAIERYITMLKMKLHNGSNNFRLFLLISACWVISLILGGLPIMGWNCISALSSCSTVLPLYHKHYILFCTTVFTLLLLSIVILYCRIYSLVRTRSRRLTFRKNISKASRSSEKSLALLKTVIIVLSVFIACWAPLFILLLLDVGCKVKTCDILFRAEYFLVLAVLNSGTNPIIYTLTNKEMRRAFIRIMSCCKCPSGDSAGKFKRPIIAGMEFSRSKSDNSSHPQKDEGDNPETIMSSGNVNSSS

[2] = target: T1, human sphingosine-1-phosphate receptor 1 (S1P1); experiment: β-Arrestin2 recruitment assay (PathHunter), S1P1 CHO-K1 cells; type: cell-based; details: for Emax: efficacy normalized to maximum efficacy of fingolimod, read-out: hS1P1 B-arrestin2 SPAN; for EC50: β-arrestin2 recruitment, read-out: hS1P1 B-arrestin2 pEC50 (converted)
In short: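 CHO-K1 cells co-expressing EA-β-arrestin2 and ProLink-tagged human S1P1 plated overnight, then stimulated 60 min at 37 °C. Enzyme-fragment complementation (β-galactosidase) detected after 1 h at room temperature by luminescence; values normalized to fingolimod.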
Target sequence in this assay (P21453 whole entry): as above
Target sequence in this assay (P32121 whole entry partner): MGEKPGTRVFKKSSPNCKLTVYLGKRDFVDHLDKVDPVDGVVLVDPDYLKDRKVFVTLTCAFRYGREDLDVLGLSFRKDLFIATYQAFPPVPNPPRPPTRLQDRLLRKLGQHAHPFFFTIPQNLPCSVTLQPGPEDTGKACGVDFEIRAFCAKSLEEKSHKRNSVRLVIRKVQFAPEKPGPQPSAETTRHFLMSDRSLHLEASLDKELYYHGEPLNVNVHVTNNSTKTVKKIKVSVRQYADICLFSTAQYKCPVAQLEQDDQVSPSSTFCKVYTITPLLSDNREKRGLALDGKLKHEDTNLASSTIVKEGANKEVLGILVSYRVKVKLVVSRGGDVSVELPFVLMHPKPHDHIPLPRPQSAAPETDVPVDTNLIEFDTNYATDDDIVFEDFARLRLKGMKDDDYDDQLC

[3] = inhibition of cAMP production, S1P1
[4] = inhibition of cAMP production, potency
[5] = CHO-K1, β-arrestin2 recruitment

Structure (SMILES) | Emax [1] | EC50 [1, 3] | Emax ([2]; CHO-K1) | EC50 ([2]; S1P1) | Emax ([1]; inhibition of cAMP production) | EC50 [1, 4] | Emax [2, 5] | EC50 ([2]; potency)
Cn1cnc2ccc(-c3nnc(-c4ccc(NCC(F)(F)CO)c(C#N)c4)o3)cc21 [Compound 635, 2-[(2,2-difluoro-3-hydroxypropyl)amino]-5-[5-(1-methyl-1H-1,3-benzodiazol-6-yl)-1,3,4-oxadiazol-2-yl]benzonitrile] | < 75% | < 0.316 µM | < 75% | < 10 µM |  |  |  | 
C=CCn1nnc2cc(-c3nc(-c4ccccc4)no3)ccc21 [Compound 270, 5-(3-phenyl-1,2,4-oxadiazol-5-yl)-1-(prop-2-en-1-yl)-1H-1,2,3-benzotriazole] |  |  |  |  | < 75% | > 0.316 µM | < 75% | > 10 µM
CC(C)n1ccc2cc(-c3noc(-c4ccc(F)cc4)n3)ccc21 [Compound 400, 5-(4-fluorophenyl)-3-(1-isopropyl-1H-indol-5-yl)-1,2,4-oxadiazole] | < 75% | > 0.316 µM | < 75% | > 10 µM |  |  |  | 
CSc1ccccc1-c1nc(-c2ccc3c(c2)nnn3C(C)C)no1 [Compound 276, 3-(1-isopropyl-1H-benzo[d][1,2,3]triazol-5-yl)-5-(2-(methylthio)phenyl)-1,2,4-oxadiazole] |  |  |  |  | > 75% | < 0.316 µM | > 75% | < 10 µM
CC(C)(CO)Cn1nnc2cc(-c3noc(-c4ccccc4Cl)n3)ccc21 [Compound 526, 3-(5-(5-(2-chloro-phenyl)-1,2,4-oxadiazol-3-yl)-1H-benzo[d][1,2,3]triazol-1-yl)-2,2-dimethylpropan-1-ol] | > 75% | > 0.316 µM | > 75% | > 10 µM |  |  |  | 
CCC1(CC)CC(=O)c2cc(-c3ncc(-c4ccccc4OC)cn3)ccc2O1 [Compound 594, 2,2-diethyl-6-(5-(2-methoxyphenyl)pyrimidin-2-yl)chroman-4-one] | > 75% | < 0.316 µM | > 75% | < 10 µM |  |  |  | 
CCC1(CC)CC(=O)c2cc(-c3nc(-c4ccc(S(=O)(=O)N(C)C)cc4)no3)ccc2O1 [Compound 30, 4-(5-(2,2-diethyl-4-oxochroman-6-yl)-1,2,4-oxadiazol-3-yl)-N,N-dimethylbenzene-sulfonamide] |  |  |  |  | < 75% | > 0.316 µM | < 75% | > 10 µM
CCC1(CC)CC(=O)c2cc(-c3nc(-c4cncnc4)no3)ccc2O1 [Compound 620, 2,2-diethyl-6-(3-(pyrimidin-5-yl)-1,2,4-oxadiazol-5-yl)chroman-4-one] | < 75% | < 0.316 µM | > 75% | < 10 µM |  |  |  | 
COc1ccccc1-c1cnc(-c2ccc3c(c2)nnn3C(C)C)s1 [Compound 184, 2-(1-isopropyl-1H-benzo[d][1,2,3]triazol-5-yl)-5-(2-methoxy-phenyl)thiazole] |  |  |  |  | > 75% | > 0.316 µM | < 75% | > 10 µM
CC1(C)Oc2ccc(-c3nc(-c4cccnc4)no3)cc2C1=O [Compound 481, 2,2-dimethyl-5-[3-(pyridin-3-yl)-1,2,4-oxadiazol-5-yl]-2,3-dihydro-1-benzofuran-3-one] | > 75% | > 0.316 µM | < 75% | < 10 µM |  |  |  | 
Cc1ccccc1-c1noc(-c2ccc3c(c2)nnn3C2CC2)n1 [Compound 171, 1-cyclopropyl-5-[3-(2-methylphenyl)-1,2,4-oxadiazol-5-yl]-1H-1,2,3-benzotriazole] |  |  |  |  | > 75% | < 0.316 µM | > 75% | < 10 µM
CCC1(CC)CC(=O)c2cc(-c3nc(-c4cncc(OC)c4)no3)ccc2O1 [Compound 311, 2,2-diethyl-6-(3-(5-methoxypyridin-3-yl)-1,2,4-oxadiazol-5-yl)chroman-4-one] |  |  |  |  | > 75% | > 0.316 µM | > 75% | > 10 µM
CC(C)n1nnc2cc(-c3nc(-c4ccc(Oc5ccccc5)cc4)no3)ccc21 [Compound 15, 5-[3-(4-phenoxyphenyl)-1,2,4-oxadiazol-5-yl]-1-(propan-2-yl)-1H-1,2,3-benzotriazole] |  |  |  |  | > 75% | > 0.316 µM | < 75% | > 10 µM
Brc1ccccc1-c1nc(-c2ccc3c(c2)nnn3C2CCCC2)no1 [Compound 40, 5-(2-bromophenyl)-3-(1-cyclopentyl-1H-benzo[d][1,2,3]triazol-5-yl)-1,2,4-oxadiazole] |  |  |  |  | > 75% | < 0.316 µM | > 75% | < 10 µM
COc1ccc(-c2nsc(-c3ccc4[nH]ccc4c3)n2)cc1 [Compound 363, 5-[3-(4-methoxyphenyl)-1,2,4-thiadiazol-5-yl]-1H-indole] |  |  |  |  | < 75% | > 0.316 µM | < 75% | > 10 µM
COc1cc(NC(C)=O)ccc1-c1nc(-c2ccncc2)no1 [Compound 582, N-{3-methoxy-4-[3-(pyridin-4-yl)-1,2,4-oxadiazol-5-yl]phenyl}acetamide] | > 75% | > 0.316 µM | < 75% | > 10 µM |  |  |  | 
CC(C)n1nnc2cc(-c3cc(-c4ccccc4F)c[nH]3)ccc21 [Compound 542, 5-[4-(2-fluorophenyl)-1H-pyrrol-2-yl]-1-(propan-2-yl)-1H-1,2,3-benzotriazole] | < 75% | > 0.316 µM | < 75% | < 10 µM |  |  |  | 
N#Cc1cc(-c2nnc(-c3ccc4c(c3)CCC(=O)N4)o2)ccc1NCC(F)F [Compound 477, 2-[(2,2-difluoroethyl)amino]-5-[5-(2-oxo-1,2,3,4-tetrahydro-quinolin-6-yl)-1,3,4-oxadiazol-2-yl]benzonitrile] | > 75% | < 0.316 µM | < 75% | < 10 µM |  |  |  | 
Brc1ccccc1-c1nc(-c2ccc3c(c2)nnn3Cc2ccccc2)no1 [Compound 52, 3-(1-benzyl-1H-benzo[d][1,2,3]triazol-5-yl)-5-(2-bromophenyl)-1,2,4-oxadiazole] |  |  |  |  | < 75% | > 0.316 µM | < 75% | > 10 µM
Cc1cccc(-c2noc(-c3ccc4c(c3)nnn4C3CCCCC3)n2)c1 [Compound 11, 1-cyclohexyl-5-[3-(3-methylphenyl)-1,2,4-oxadiazol-5-yl]-1H-1,2,3-benzotriazole] |  |  |  |  | < 75% | > 0.316 µM | < 75% | > 10 µM
CC(C)n1nnc2cc(-c3noc(-c4ccc(-c5ccccc5)cc4)n3)ccc21 [Compound 248, 5-([1,1′-biphenyl]-4-yl)-3-(1-isopropyl-1H-benzo[d][1,2,3]triazol-5-yl)-1,2,4-oxadiazole] |  |  |  |  | < 75% | > 0.316 µM | < 75% | > 10 µM
CCC1CC(=O)c2ccc(-c3nc(-c4ccncc4)no3)cc2O1 (centres unmarked) [Compound 589, 2-ethyl-7-[3-(pyridin-4-yl)-1,2,4-oxadiazol-5-yl]-3,4-dihydro-2H-1-benzopyran-4-one] | < 75% | > 0.316 µM | > 75% | > 10 µM |  |  |  | 
Cc1nc2cc(-c3nnc(-c4ccc(NCC(F)F)c(C#N)c4)o3)ccc2[nH]1 [Compound 561, 2-[(2,2-difluoro-ethyl)amino]-5-[5-(2-methyl-1H-1,3-benzodiazol-5-yl)-1,3,4-oxadiazol-2-yl]benzonitrile] | > 75% | < 0.316 µM | < 75% | < 10 µM |  |  |  | 
Cn1ccnc1-c1noc(-c2ccc3c(c2)nnn3CC(C)(C)O)n1 [Compound 567, 2-methyl-1-(5-[3-(1-methyl-1H-imidazol-2-yl)-1,2,4-oxadiazol-5-yl]-1H-1,2,3-benzotriazol-1-yl}propan-2-ol] | > 75% | > 0.316 µM | < 75% | > 10 µM |  |  |  | 
CCC1(CC)CC(=O)c2cc(-c3nc(-c4ccnc(N)c4)no3)ccc2O1 [Compound 513, 6-(3-(2-aminopyridin-4-yl)-1,2,4-oxadiazol-5-yl)-2,2-diethyl-chroman-4-one] | > 75% | < 0.316 µM | > 75% | < 10 µM |  |  |  | 
Cc1ccccc1-c1noc(-c2ccc3scnc3c2)n1 [Compound 362, 5-[3-(2-methylphenyl)-1,2,4-oxadiazol-5-yl]-1,3-benzothiazole] |  |  |  |  | < 75% | > 0.316 µM | < 75% | > 10 µM
COc1ccccc1-c1nnc(-c2ccc3c(c2)c(=O)on3C)o1 [Compound 340, 5-[5-(2-methoxyphenyl)-1,3,4-oxadiazol-2-yl]-1-methyl-1,3-dihydro-2,1-benzoxazol-3-one] |  |  |  |  | < 75% | > 0.316 µM | < 75% | > 10 µM
COc1ccccc1-c1nnc(-c2ccc3c(c2)CCC(=O)N3)o1 [Compound 341, 6-[5-(2-methoxyphenyl)-1,3,4-oxadiazol-2-yl]-1,2,3,4-tetrahydro-quinolin-2-one] |  |  |  |  | < 75% | > 0.316 µM | < 75% | > 10 µM
COc1ccccc1-c1nnc(-c2ccc3[nH]oc(=O)c3c2)o1 [Compound 339, 5-[5-(2-methoxyphenyl)-1,3,4-oxadiazol-2-yl]-1,3-dihydro-2,1-benzoxazol-3-one] |  |  |  |  | < 75% | > 0.316 µM | < 75% | > 10 µM
